# Experimental data: patent publication US12662491B2 (Redona Therapeutics, Inc., priority 2020, dated 2026)
# pIC50: −log10 of the molar value.
# Molecular target: T1, Zcchc11 enzyme (Homo sapiens, UniProt Q5TAX3)
# T1 construct: made in house; host or cells: HEK293 cells (Zcchc11); E. coli Rosetta II (LIN28A)
# T1 sequence (Q5TAX3 212-1420): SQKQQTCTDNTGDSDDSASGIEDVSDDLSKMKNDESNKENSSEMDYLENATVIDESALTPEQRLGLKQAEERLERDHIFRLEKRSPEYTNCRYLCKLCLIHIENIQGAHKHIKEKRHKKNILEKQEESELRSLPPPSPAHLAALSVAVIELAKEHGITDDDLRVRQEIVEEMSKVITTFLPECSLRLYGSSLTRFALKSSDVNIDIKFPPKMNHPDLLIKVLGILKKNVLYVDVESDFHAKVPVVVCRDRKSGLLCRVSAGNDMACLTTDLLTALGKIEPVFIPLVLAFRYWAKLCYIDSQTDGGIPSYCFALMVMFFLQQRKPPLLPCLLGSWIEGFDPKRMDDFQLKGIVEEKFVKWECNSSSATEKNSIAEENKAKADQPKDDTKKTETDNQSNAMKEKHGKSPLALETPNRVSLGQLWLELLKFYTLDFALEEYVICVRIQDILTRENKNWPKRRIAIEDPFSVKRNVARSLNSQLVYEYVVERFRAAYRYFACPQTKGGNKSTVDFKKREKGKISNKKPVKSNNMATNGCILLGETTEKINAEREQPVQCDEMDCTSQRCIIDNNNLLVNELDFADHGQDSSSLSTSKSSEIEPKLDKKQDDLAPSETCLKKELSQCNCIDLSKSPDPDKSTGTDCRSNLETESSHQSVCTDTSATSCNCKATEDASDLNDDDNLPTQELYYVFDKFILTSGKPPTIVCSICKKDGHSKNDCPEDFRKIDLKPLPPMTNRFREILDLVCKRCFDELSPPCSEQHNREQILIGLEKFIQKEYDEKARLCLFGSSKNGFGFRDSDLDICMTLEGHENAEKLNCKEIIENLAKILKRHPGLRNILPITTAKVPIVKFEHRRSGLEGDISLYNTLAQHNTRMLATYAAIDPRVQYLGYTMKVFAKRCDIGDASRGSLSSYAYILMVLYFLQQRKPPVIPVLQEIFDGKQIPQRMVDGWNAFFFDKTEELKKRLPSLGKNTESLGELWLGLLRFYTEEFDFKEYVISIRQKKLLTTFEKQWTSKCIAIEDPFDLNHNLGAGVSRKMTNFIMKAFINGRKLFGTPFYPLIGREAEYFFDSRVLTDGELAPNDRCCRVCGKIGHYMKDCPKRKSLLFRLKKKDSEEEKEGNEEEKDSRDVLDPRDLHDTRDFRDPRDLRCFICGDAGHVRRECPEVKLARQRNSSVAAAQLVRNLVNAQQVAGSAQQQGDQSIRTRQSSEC
# Test: TUTase assay (Zcchc11 assay, Lin28a-dependent polyuridylation of pre-let-7)
# Assay type: biochemical
# Conditions: Lin28a-dependent Zcchc11 (Z11) TUTase activity; read-out: Potency Lin28a-dep Z11 IC50
# Summary of the method: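 Readout: time-dependent quench of 5′-fluorescein pre-let-7 (2 nM) as 3′-rhodamine A20 probe anneals to poly(U) tails. Enzyme 0.2 nM Zcchc11 (res. 212-1420), LIN28A 10 nM, UTP 5 uM; pH 7.3 HEPES, 150 mM KCl, 5 mM MgCl2, RT. 4-parameter IC50; 100% = DMSO, 0% = no UTP.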
row,pIC50,Compound
1,≥ 6.00,"CN(C)C1CN(c2ccc(-n3cc(C(=O)O)c(=O)c4cc(Cl)c(N5[C@@H](COc6nc(OC7CC7)ccc6Cl)C[C@H]6C[C@H]65)cc43)cn2)C1 [Compound 270, 6-chloro-7-((1R,3R,5R)-3-(((3-chloro-6-cycloprop-oxypyridin-2-yl)oxy)methyl)-2-azabicyclo [3.1.0]hexan-2-yl)-1-(6-(3-(dimethyl-amino)azetidin-1-yl)pyridin-3-yl)-4-oxo-1,4-dihydro-quinoline-3-carboxylic acid]"
2,≥ 6.00,"CN(C)C1CN(c2ccc(-n3cc(C(=O)O)c(=O)c4cc(Cl)c(N5C6CC6C[C@@H]5COc5nc(OC6CC6)ccc5Cl)cc43)cn2)C1 (stereo partly drawn) [Compound 271, 6-chloro-7-((3R)-3-(((3-chloro-6-cycloprop-oxypyridin-2-yl)oxy)methyl)-2-azabicyclo [3.1.0]hexan-2-yl)-1-(6-(3-(dimethyl-amino)azetidin-1-yl)pyridin-3-yl)-4-oxo-1,4-dihydro-quinoline-3-carboxylic acid]"
3,≥ 6.00,"CN(C)C1CN(c2ccc(-n3cc(C(=O)O)c(=O)c4cc(Cl)c(N5CCC(C)(C)C5COc5nc(OC6CC6)ccc5Cl)cc43)cn2)C1 (stereo not shown) [Compound 272, 6-chloro-7-(2-(((3-chloro-6-cycloprop-oxypyridin-2-yl)oxy)methyl)-3,3-dimethyl-pyrrolidin-1-yl)-1-(6-(3-(dimethyl-amino)azetidin-1-yl)pyridin-3-yl)-4-oxo-1,4-dihydro-quinoline-3-carboxylic acid]"
4,≥ 6.00,"CN(C)C1CN(c2ccc(-n3cc(C(=O)O)c(=O)c4cc(Cl)c(N5CCC[C@@H]5COc5nc6ncn(C)c6cc5Cl)cc43)cn2)C1 [Compound 273, (R)-6-chloro-7-(2-(((6-chloro-1-methyl-1H-imidazo [4,5-b]pyridin-5-yl)oxy)methyl)pyrrolidin-1-yl)-1-(6-(3-(dimethyl-amino)azetidin-1-yl)pyridin-3-yl)-4-oxo-1,4-dihydro-quinoline-3-carboxylic acid formic acid]"
5,≥ 6.00,"CN(C)C1CN(c2ccc(-n3cc(C(=O)O)c(=O)c4cc(Cl)c(N5CC(OC6CC6)C[C@@H]5COc5ncccc5Cl)cc43)cn2)C1 (stereo partly drawn) [Compound 275, 6-chloro-7-((2R)-2-(((3-chloropyridin-2-yl)oxy)methyl)-4-cycloprop-oxypyrrolidin-1-yl)-1-(6-(3-(dimethyl-amino)azetidin-1-yl)pyridin-3-yl)-4-oxo-1,4-dihydro-quinoline-3-carboxylic acid]"
6,≥ 6.00,"CN(C)C1CN(c2ccc(-n3cc(C(=O)O)c(=O)c4cc(Cl)c(N5CC(c6cn(C)cn6)C[C@@H]5COc5ncccc5Cl)cc43)cn2)C1 (stereo partly drawn) [Compound 276, 6-chloro-7-((2R)-2-(((3-chloropyridin-2-yl)oxy)methyl)-4-(1-methyl-1H-imidazol-4-yl)pyrrolidin-1-yl)-1-(6-(3-(dimethyl-amino)azetidin-1-yl)pyridin-3-yl)-4-oxo-1,4-dihydro-quinoline-3-carboxylic acid]"
7,≥ 6.00,"CN(C)C1CN(c2ccc(-n3cc(C(=O)O)c(=O)c4cc(Cl)c(N5CCC[C@]5(C)COc5ncccc5Cl)cc43)cn2)C1 [Compound 277, (R)-6-chloro-7-(2-(((3-chloropyridin-2-yl)oxy)methyl)-2-methyl-pyrrolidin-1-yl)-1-(6-(3-(dimethyl-amino)azetidin-1-yl)pyridin-3-yl)-4-oxo-1,4-dihydro-quinoline-3-carboxylic acid formic acid]"
8,≥ 6.00,"COCCN(C)C1CN(c2ccc(-n3cc(C(=O)O)c(=O)c4cc(F)c(N5CCC[C@@H]5COc5ncccc5Cl)cc43)cn2)C1 [Compound 278, (R)-7-(2-(((3-chloropyridin-2-yl)oxy)methyl)pyrrolidin-1-yl)-6-fluoro-1-(6-(3-((2-methoxyethyl) (methyl)amino)azetidin-1-yl)pyridin-3-yl)-4-oxo-1,4-dihydro-quinoline-3-carboxylic acid]"
9,≥ 6.00,"COc1ccc(Cl)c(OCC23CC(CN2c2nc4c(cc2Cl)c(=O)c(C(=O)O)cn4-c2ccc(N4CC(N(C)C)C4)nc2)C3)n1 [Compound 279, 6-chloro-7-(1-(((3-chloro-6-methoxy-pyridin-2-yl)oxy)methyl)-2-azabicyclo [2.1.1]hexan-2-yl)-1-(6-(3-(dimethyl-amino)azetidin-1-yl)pyridin-3-yl)-4-oxo-1,4-dihydro-1,8-naphthyridine-3-carboxylic acid formic acid]"
10,≥ 6.00,"CN(C)C1CN(c2cnc(-n3cc(C(=O)O)c(=O)c4cc(C#N)c(N5CCC[C@@H]5COc5ncccc5Cl)nc43)cn2)C1 [Compound 280, (R)-7-(2-(((3-chloropyridin-2-yl)oxy)methyl)pyrrolidin-1-yl)-6-cyano-1-(5-(3-(dimethyl-amino)azetidin-1-yl)pyrazin-2-yl)-4-oxo-1,4-dihydro-1,8-naphthyridine-3-carboxylic acid]"
11,≥ 6.00,"Cn1cc(-n2cc(C(=O)O)c(=O)c3cc(C#N)c(N4CCC[C@H]4COc4ncccc4Cl)nc32)cn1 [Compound 281, (S)-7-(2-(((3-chloropyridin-2-yl)oxy)methyl)pyrrolidin-1-yl)-6-cyano-1-(1-methyl-1H-pyrazol-4-yl)-4-oxo-1,4-dihydro-1,8-naphthyridine-3-carboxylic acid]"
12,≥ 6.00,"CN(C)C1CN(c2ccc(-n3cc(C(=O)O)c(=O)c4cc(Cl)c(N5C6CCC5(COc5ncccc5Cl)CC6)cc43)cn2)C1 [Compound 282, 6-chloro-7-(1-(((3-chloropyridin-2-yl)oxy)methyl)-7-azabicyclo [2.2.1]heptan-7-yl)-1-(6-(3-(dimethyl-amino)azetidin-1-yl)pyridin-3-yl)-4-oxo-1,4-dihydro-quinoline-3-carboxylic acid]"
13,4.30 to 5.00,"N#Cc1cc2c(=O)c(C(=O)O)cn(-c3cnccn3)c2nc1N1CCC[C@@H]1COc1ccccc1 [Compound 283, (R)-6-cyano-4-oxo-7-(2-(phenoxy-methyl)pyrrolidin-1-yl)-1-(pyrazin-2-yl)-1,4-dihydro-1,8-naphthyridine-3-carboxylic acid]"
14,≥ 6.00,"CN(C)C1CN(c2ccc(-n3cc(C(=O)O)c(=O)c4cc(C#N)c(N5CCC[C@]5(C)COc5ncccc5F)cc43)cn2)C1 [Compound 284, (R)-6-cyano-1-(6-(3-(dimethyl-amino)azetidin-1-yl)pyridin-3-yl)-7-(2-(((3-fluoropyridin-2-yl)oxy)methyl)-2-methyl-pyrrolidin-1-yl)-4-oxo-1,4-dihydro-quinoline-3-carboxylic acid]"
15,≥ 6.00,"CN(C)C1CN(c2ccc(-n3cc(C(=O)O)c(=O)c4cc(C#N)c(N5CCC[C@@]5(C)COc5ncccc5F)cc43)cn2)C1 [Compound 285, (S)-6-cyano-1-(6-(3-(dimethyl-amino)azetidin-1-yl)pyridin-3-yl)-7-(2-(((3-fluoropyridin-2-yl)oxy)methyl)-2-methyl-pyrrolidin-1-yl)-4-oxo-1,4-dihydro-quinoline-3-carboxylic acid]"
16,< 4.30,"O=C(O)c1cn(-c2cnccn2)c2cc(N3C(=O)CC[C@@H]3COc3ccccn3)c(Cl)cc2c1=O [Compound 286, (R)-6-chloro-4-oxo-7-(2-oxo-5-((pyridin-2-yloxy)methyl)pyrrolidin-1-yl)-1-(pyrazin-2-yl)-1,4-dihydro-quinoline-3-carboxylic acid]"
